Values of other authors in patent US9327003B2, “Use of foti to enhance stem cell mobilization and proliferation” (Stemtech International, Inc., priority 2011, dated 2016).

How the values were obtained:
circulating HSC = conditions: injection / administration
[1] = including hemorrhaging, rupturing of the spleen, bloody sputum, bone disorders

Molecule | time course of elevating circulating HSC numbers (circulating HSC) | side effects [1] | other results
IL-8: interleukin-8 | acts only within minutes and has a short-lived effect | – | –
G-CSF: granulocyte colony-stimulating factor or recombinant forms thereof | requires days to achieve peak circulating HSC numbers | – | –
OC[C@H]1O[C@@H](Oc2c(O)cc(O)cc2C=Cc2ccc(O)cc2)[C@H](O)[C@@H](O)[C@@H]1O [2,3,5,4′-tetrahydroxystilbene-2-O-β-d-glycoside] | – | – | stability in aqueous solutions: readily degrade in aqueous solutions in a temperature and pH dependent manner
c1cc(CN2CCCNCCNCCCNCC2)ccc1CN1CCCNCCNCCCNCC1 [AMD3100, reference compound] | – | significant side effects | –
G-CSF: granulocyte colony-stimulating factor or recombinant forms thereof (protein, UniProt P09919 31-207, looked up) Granulocyte …: TPLGPASSLPQSFLLKCLEQVRKIQGDGAALQEKLVSECATYKLCHPEELVLLGHSLGIPWAPLSSCPSQALQLAGCLSQLHSGLFLYQGLLQALEGISPELGPTLDTLQLDVADFATTIWQQMEELGMAPALQPTQGAMPAFASAFQRRAGGVLVASHLQSFLEVSYRVLRHLAQP | – | significant side effects | –
